In patent publication US5919668A, “Non-reducing saccharide and its production and use” (Kabushiki Kaisha Hayashibara Seibutsu Kagaku Kenkyujo, priority 1994, dated 1999):
Entries after “also recorded” stand apart in the source; their conditions may differ.

How the values were obtained:
[1] = Maillard reaction (coloration with glycine, absorbance at 480 nm); type: physicochemical; settings: for Coloration degree at 480 nm: 10% saccharide, 1% glycine, 50 mM phosphate buffer pH7.0, 100° C., 90 minutes, 1 cm cuvette; for Coloration degree relative to maltooligosaccharides as material: 480 nm, with glycine
Protocol: Solutions of 10% saccharide preparation PI, PII, PIII, PIV or PV prepared in Experiment 4 and 1% glycine in 50 mM phosphate buffer (pH7.0) were incubated at 100° C. for 90 minuets, cooled and determined in 1 cm cuvette for absorbance at 480 nm. As control, maltotriose, maltotetraose, maltopentaose, maltohexaose and maltoheptaose which were used as the starting materials were treated similarly as above and determined for absorbance at 480 nm.
10% High-purity trehalose preparation, purity of 99.5%, obtained by the method in Experiment 17 and 1% glycine in 50 mM phosphate buffer (pH7.0) was incubated at 100° C. for 90 minutes, cooled and measured in lcm cuvette for absorbance at 480 nm. As control, glucose and maltose were treated similarly as above and then measured for absorbance at 480 nm.

[2] = test system: glucoamylase; experiment: Enzymatic hydrolysis by glucoamylase; type: biochemical; settings: for Molar ratio (glucose/trehalose): degradation product by glucoamylase; for Glucose in degradation product by glucoamylase / Trehalose in degradation product by glucoamylase: pH4.5, 40° C., 6 hours
Protocol: Fifty milligrams of the non-reducing saccharide preparation PI, PII, PIII, PIV or PV prepared in Experiment 4 was dissolved in 1 ml of 50 mM acetate buffer (pH4.5), added with one unit of the glucoamylase commercialized by Seikagaku Corp., Tokyo, Japan, incubated at 40° C. for 6 hours for enzymatic hydrolysis and analyzed for degradation products on high-performance liquid chromatography, thus detecting glucose and trehalose as sole products. The noted glucose contents, trehalose contents and their molar ratios were as shown in Table 5.

[3] = test system: rice alpha-glucosidase; experiment: Degradation by rice alpha-glucosidase; type: biochemical; settings: for Glucose in degradation product by alpha-glucosidase / Others in degradation product by alpha-glucosidase / Trehalose in degradation product by alpha-glucosidase: pH4.0, 37° C., 18 hours
Protocol: (§1) The non-reducing saccharide preparations PI, PII, PIII, PIV and PV as substrates prepared in Experiment 4 were subjected to pig pancreas alpha-amylase, rice alpha-glucosidase and acetone-pulverized rat small intestine enzyme, all of which were products of Sigma Chemical Co., St Louis, Mo., USA, and the degradation products were analyzed on high-performance liquid chromatography for saccharide composition. The reaction by alpha-amylase was carried out by dissolving 10 mg of either substrate in 1 ml of 50 mM phosphate buffer (pH6.9), adding thereto one unit of alpha-amylase and incubating at 37° C. for 18 hours. The reaction by alpha-glucosidase was conducted similarly as in the case of alpha-amylase except that 50 mM acetate buffer (pH4.0) was used. In the case of acetone-pulverized rat small intestine enzyme, the reaction was conducted similarly as in the case of alpha-amylase except that 50 mM maleic acid buffer (pH6.0) was used.

[4] = Reducing power by the Somogyi-Nelson method, represented in terms of DE; type: physicochemical; settings: high-purity preparations, Somogyi-Nelson method
Protocol: The high-purity preparations of the newly formed saccharides were determined for reducing power by the Somogyi-Nelson method and represented in terms of DE.

[5] = test system: pig kidney trehalase; experiment: Degradation by pig kidney trehalase; type: biochemical; settings: trehalose, or trehalose formed from PI-PV; pH5.7, 37° C., 18 hours for the latter
Protocol: In order to purify trehalose from respective reaction products, they were decolored, deionized, concentrated and subjected to column fractionation on a strongly-acidic cation exchange of sodium form "XT-1016", followed by recovering high-purity fractions with trehalose contents of 97% or higher. The fractions were then concentrated to about 65% and allowed to standing at 25° C. for 2 days to crystallize out crystalline trehalose hydrate which was then separated and dried in vacuo to obtain a high-purity preparation with a trehalose content of 99% or higher. The yields against respective starting substrates on dry solid basis were as follows: from glycosyl trehalose, 9.5%; from maltosyl trehalose, 14.9%; from maltotriosyl trehalose, 16.0%; from maltotetraosyl trehalose, 18.5%; and from maltopentaosyl trehalose, 17.7%. […] As evident from the above results, the saccharides formed by subjecting alpha-glycosyl trehaloses to the trehalose-releasing enzyme were identified to be trehalose.

[6] = test system: mice; experiment: Acute toxicity test, oral administration in mice; type: in vivo; settings: for Animal death at the possible highest dose: oral, mice
Protocol: Acute toxicity tests were conducted on the non-reducing saccharide preparations PI, PII, PIII, PIV and PV prepared in Experiment 4, where they were orally administered to 7 week-old dd mice. […] Thus the LD50 of these saccharides was at least 50 g/kg or higher.
An acute toxicity test was conducted on a high-purity trehalose preparation obtained by the method in Experiment 17, purity of 99.5%, where it was orally administered in mice. […] Thus its LD50 would be briefly 50 g/kg or higher.

[7] = test system: acetone-pulverized rat small intestine enzyme; experiment: Degradation by acetone-pulverized rat small intestine enzyme; type: biochemical; settings: for Glucose in degradation product by acetone-powdered rat small intestine enzyme / Others in degradation product by acetone-powdered rat small intestine enzyme / Trehalose in degradation product by acetone-powdered rat small intestine enzyme: pH6.0, 37° C., 18 hours
Protocol: as §1

[8] = test system: pig pancreas alpha-amylase; experiment: Degradation by pig pancreas alpha-amylase; type: biochemical; settings: for G1 (glucose) in degradation product by alpha-amylase / G2 (maltose) in degradation product by alpha-amylase / G3 (maltotriose) in degradation product by alpha-amylase / PI in degradation product by alpha-amylase / PII in degradation product by alpha-amylase: pH6.9, 37° C., 18 hours
Protocol: as §1

[9] = test system: beta-amylase; experiment: Degradation by beta-amylase; type: biochemical
From the text: Considering the reaction characteristics of glucoamylase, these saccharides very likely bear structures where glucose molecule(s) is bound to trehalose molecule via alpha1,4 or alpha-1,6 linkage: Saccharide PI is a non-reducing saccharide with a glucose polymerization degree of 3 where one glucose molecule is bound to one trehalose molecule; saccharide PII, another non-reducing saccharide with a glucose polymerization degree of 4 where two glucose molecules are bound to one trehalose molecule; saccharide PIII, still another non-reducing saccharide with a glucose polymerization degree of 5 where three glucose molecules are bound to one trehalose molecule; saccharide PIV, still another non-reducing saccharide with a glucose polymerization degree of 6 where four glucose molecules are bound to one trehalose molecule; and saccharide PV, still another non-reducing saccharide with a polymerization degree of 7 where five glucose molecules are bound to one trehalose molecule.

| SMILES | Coloration degree relative to maltooligosaccharides as material [1] | Degradation by glucoamylase (in words) [2] | Molar ratio (glucose/trehalose) [2] | Glucose in degradation product by glucoamylase [2] | Trehalose in degradation product by glucoamylase [2] | Degradation by alpha-glucosidase (in words) [3] | Glucose in degradation product by alpha-glucosidase [3] | Others in degradation product by alpha-glucosidase [3] | Trehalose in degradation product by alpha-glucosidase [3] | DE of saccharide preparation [4] | Degradation by pig kidney trehalase (in words) [5] | Animal death at the possible highest dose [6] | Degradation by acetone-pulverized rat small intestine enzyme (in words) [7] | Glucose in degradation product by acetone-powdered rat small intestine enzyme [7] | Others in degradation product by acetone-powdered rat small intestine enzyme [7] | Trehalose in degradation product by acetone-powdered rat small intestine enzyme [7] | Degradation by alpha-amylase (in words) [8] | G1 (glucose) in degradation product by alpha-amylase [8] | G2 (maltose) in degradation product by alpha-amylase [8] | G3 (maltotriose) in degradation product by alpha-amylase [8] | further results |
| --- | --- | --- | --- | --- | --- | --- | --- | --- | --- | --- | --- | --- | --- | --- | --- | --- | --- | --- | --- | --- | --- |
| OC[C@H]1O[C@H](O[C@H]2O[C@H](CO)[C@@H](O[C@H]3O[C@H](CO)[C@@H](O)[C@H](O)[C@H]3O)[C@H](O)[C@H]2O)[C@H](O)[C@@H](O)[C@@H]1O [PI, alpha-glucosyl trehalose] | 3-6% | degraded by glucoamylase into one glucose molecule and one trehalose molecule | 1.07 | 36.2% | 63.8% | degradable | 36.5% | 0.5% | 63.0% | 0.83 | degradable into glucose by the trehalase | no animal death was observed | degradable | 37.2% | 0.4% | 62.4% | hardly degraded by alpha-amylase | 0% | 0.4% | 2.3% | Coloration degree at 480 nm [1]: 0.027; PI in degradation product by alpha-amylase [8]: 97.3%; PII in degradation product by alpha-amylase [8]: 0%; Degradation by beta-amylase (in words) [9]: not degraded |
| OC[C@H]1O[C@H](O[C@H]2O[C@H](CO)[C@@H](O[C@H]3O[C@H](CO)[C@@H](O[C@H]4O[C@H](CO)[C@@H](O)[C@H](O)[C@H]4O)[C@H](O)[C@H]3O)[C@H](O)[C@H]2O)[C@H](O)[C@@H](O)[C@@H]1O [PII, alpha-maltosyl trehalose] | 3-6% | two glucose molecules and one trehalose molecule; also recorded: one trehalose molecule and two glucose molecules | 2.06 | 52.0% | 48.0% | degradable | 52.1% | 0.3% | 47.6% | 0.35 | degradable into glucose by the trehalase | no animal death was observed | degradable | 52.5% | 0.4% | 47.1% | hardly degraded by alpha-amylase | 0% | 0.8% | 0.4% | Coloration degree at 480 nm [1]: 0.018; PI in degradation product by alpha-amylase [8]: 0%; PII in degradation product by alpha-amylase [8]: 98.8%; Degradation by beta-amylase (in words) [9]: not degraded |
| OC[C@H]1O[C@H](O[C@H]2O[C@H](CO)[C@@H](O[C@H]3O[C@H](CO)[C@@H](O[C@H]4O[C@H](CO)[C@@H](O[C@H]5O[C@H](CO)[C@@H](O)[C@H](O)[C@H]5O)[C@H](O)[C@H]4O)[C@H](O)[C@H]3O)[C@H](O)[C@H]2O)[C@H](O)[C@@H](O)[C@@H]1O [PIII, alpha-maltotriosyl trehalose] | 3-6% | three glucose molecules and one trehalose molecule | 3.02 | 61.4% | 38.6% | degradable | 61.7% | 0.2% | 38.1% | 0.10 | degradable into glucose by the trehalase | no animal death was observed | degradable | 62.0% | 0.4% | 37.6% | degraded by alpha-amylase into smaller oligosaccharides | 1.2% | 33.0% | 0% | Coloration degree at 480 nm [1]: 0.012; PI in degradation product by alpha-amylase [8]: 61.0%; PII in degradation product by alpha-amylase [8]: 4.8%; Degradation by beta-amylase (in words) [9]: degraded into one maltose molecule and one saccharide PI molecule |
| OC[C@H]1O[C@H](O[C@H]2O[C@H](CO)[C@@H](O[C@H]3O[C@H](CO)[C@@H](O[C@H]4O[C@H](CO)[C@@H](O[C@H]5O[C@H](CO)[C@@H](O[C@H]6O[C@H](CO)[C@@H](O)[C@H](O)[C@H]6O)[C@H](O)[C@H]5O)[C@H](O)[C@H]4O)[C@H](O)[C@H]3O)[C@H](O)[C@H]2O)[C@H](O)[C@@H](O)[C@@H]1O [PIV, alpha-maltotetraosyl trehalose] | 3-6% | four glucose molecules and one trehalose molecule | 4.09 | 68.3% | 31.7% | degradable | 69.5% | 0.3% | 30.2% | 0.27 | degradable into glucose by the trehalase | no animal death was observed | degradable | 68.8% | 0.4% | 30.8% | degraded by alpha-amylase into smaller oligosaccharides | 1.6% | 7.5% | 40.4% | LD50 ([6]; mouse, in vivo, po): at least 50 g/kg; PI in degradation product by alpha-amylase [8]: 47.2%; PII in degradation product by alpha-amylase [8]: 3.3%; Degradation by beta-amylase (in words) [9]: one maltose molecules and one saccharide PII molecule |
